Experimental data taken from PubChem BioAssay (NCI).
Where “and” joins values, the source holds several entries; their conditions need not be identical. Identical values can stand only once.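 All cell lines were grown in 96-well plates and treated with compound for 48 hours. Here, GI50 denotes the concentration required for 50% inhibition of growth. TGI marks complete inhibition of growth.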

Columns and labels:
Experiment in all cases: inhibition of tumour cell growth, NCI panel, 48 h
786-0 renal = tested on: 786-0 renal
M14 melanoma = tested on: M14 melanoma
MALME-3M melanoma = tested on: MALME-3M melanoma
NCI-H226 lung = tested on: NCI-H226 lung
OVCAR-8 ovarian = tested on: OVCAR-8 ovarian
RPMI-8226 leukemia = tested on: RPMI-8226 leukemia
SF-268 CNS = tested on: SF-268 CNS
SR leukemia = tested on: SR leukemia
SW-620 colon = tested on: SW-620 colon
UACC-257 melanoma = tested on: UACC-257 melanoma

Cc1nnc(-c2ccc(C)c(-c3ccc(C(=O)Nc4cccc(C#N)c4)cc3)c2)o1
GI50 (786-0 renal): > 25 µM | TGI (786-0 renal): > 25 µM | GI50 (M14 melanoma): > 25 µM | TGI (M14 melanoma): > 25 µM | GI50 (MALME-3M melanoma): > 25 µM | TGI (MALME-3M melanoma): > 25 µM | GI50 (NCI-H226 lung): > 10.9 µM | TGI (NCI-H226 lung): > 25 µM | GI50 (OVCAR-8 ovarian): > 25 µM | TGI (OVCAR-8 ovarian): > 25 µM | GI50 (RPMI-8226 leukemia): > 25 µM | TGI (RPMI-8226 leukemia): > 25 µM | GI50 (SF-268 CNS): > 25 µM | TGI (SF-268 CNS): > 25 µM | GI50 (SR leukemia): > 25 µM | TGI (SR leukemia): > 25 µM | GI50 (SW-620 colon): > 25 µM | TGI (SW-620 colon): > 25 µM | GI50 (UACC-257 melanoma): > 25 µM | TGI (UACC-257 melanoma): > 25 µM

CN(C)Cc1cc(C(F)(F)F)ccc1C(O)(c1ccccc1)c1ccccc1
TGI (786-0 renal): 27.7 µM | TGI (M14 melanoma): 25.3 µM | TGI (MALME-3M melanoma): 33.9 µM | TGI (NCI-H226 lung): 31.1 µM | TGI (OVCAR-8 ovarian): 35.8 µM | TGI (RPMI-8226 leukemia): 21.5 µM | TGI (SF-268 CNS): 34.3 µM | TGI (SR leukemia): 28 µM | TGI (SW-620 colon): 41 µM | TGI (UACC-257 melanoma): 24 µM

N#C/C(=C/c1cccc(Oc2ccccc2)c1)c1ccccc1
TGI (786-0 renal): > 100 µM | TGI (M14 melanoma): > 100 µM | TGI (MALME-3M melanoma): > 100 µM | TGI (NCI-H226 lung): > 100 µM | TGI (OVCAR-8 ovarian): > 100 µM | TGI (RPMI-8226 leukemia): > 100 µM | TGI (SF-268 CNS): > 100 µM | TGI (SR leukemia): > 100 µM | TGI (SW-620 colon): > 100 µM | TGI (UACC-257 melanoma): > 100 µM

O=C1COc2cc(NC(=S)Nc3ccccc3)ccc2N1
TGI (786-0 renal): > 100 µM | TGI (M14 melanoma): > 100 µM | TGI (MALME-3M melanoma): > 100 µM | TGI (NCI-H226 lung): > 100 µM | TGI (OVCAR-8 ovarian): > 100 µM | TGI (RPMI-8226 leukemia): > 100 µM | TGI (SF-268 CNS): > 100 µM | TGI (SR leukemia): > 100 µM | TGI (SW-620 colon): > 100 µM | TGI (UACC-257 melanoma): > 100 µM

O=C1C(=O)c2ccccc2C(O)=C1C(C1=C(O)c2ccccc2C(=O)C1=O)c1ccc(Cl)cc1
TGI (786-0 renal): 11.2 µM | TGI (M14 melanoma): 23.7 µM | TGI (MALME-3M melanoma): 12 µM | TGI (NCI-H226 lung): 52.9 µM | TGI (OVCAR-8 ovarian): 30.1 µM | TGI (RPMI-8226 leukemia): > 39.2 µM | TGI (SF-268 CNS): 59.8 µM | TGI (SR leukemia): 24.7 µM | TGI (SW-620 colon): > 73.7 µM | TGI (UACC-257 melanoma): 17 µM

Cc1cn(C2CC(OC(=O)c3ccc(Cl)cc3)C(COC(=O)c3ccc(Cl)cc3)O2)c(=O)[nH]c1=O (stereo not given)
TGI (786-0 renal): > 100 µM | TGI (M14 melanoma): > 100 µM | TGI (MALME-3M melanoma): > 100 µM | TGI (NCI-H226 lung): > 100 µM | TGI (OVCAR-8 ovarian): > 100 µM | TGI (RPMI-8226 leukemia): > 100 µM | TGI (SF-268 CNS): > 100 µM | TGI (SR leukemia): > 100 µM | TGI (SW-620 colon): > 100 µM | TGI (UACC-257 melanoma): > 100 µM

O=C(Nc1ccc(C(F)(F)F)cc1[N+](=O)[O-])C(=O)C1NC(=S)NC1=O (stereo not given)
TGI (786-0 renal): > 100 µM | TGI (M14 melanoma): > 100 µM | TGI (MALME-3M melanoma): > 100 µM | TGI (NCI-H226 lung): 24.1 µM | TGI (OVCAR-8 ovarian): > 100 µM | TGI (RPMI-8226 leukemia): > 100 µM | TGI (SF-268 CNS): > 100 µM | TGI (SR leukemia): > 100 µM | TGI (SW-620 colon): > 100 µM | TGI (UACC-257 melanoma): > 100 µM

CSC(SC)(C(=O)O)c1cc(-c2c(Cl)cccc2Cl)no1
TGI (786-0 renal): > 100 µM | TGI (M14 melanoma): > 100 µM | TGI (MALME-3M melanoma): > 100 µM | TGI (NCI-H226 lung): > 100 µM | TGI (OVCAR-8 ovarian): > 100 µM | TGI (RPMI-8226 leukemia): 50.4 µM | TGI (SF-268 CNS): > 100 µM | TGI (SR leukemia): > 100 µM | TGI (SW-620 colon): > 100 µM | TGI (UACC-257 melanoma): > 100 µM

CCOC1C(Br)Cn2c(=O)c3cc4ccccc4cc3c(=O)n2C1C (stereo not given)
TGI (786-0 renal): > 100 µM | TGI (M14 melanoma): > 100 µM | TGI (MALME-3M melanoma): > 100 µM | TGI (NCI-H226 lung): > 100 µM | TGI (OVCAR-8 ovarian): > 100 µM | TGI (RPMI-8226 leukemia): > 100 µM | TGI (SF-268 CNS): > 100 µM | TGI (SR leukemia): > 100 µM | TGI (SW-620 colon): > 100 µM | TGI (UACC-257 melanoma): > 100 µM

C=CC(=O)N1CCC(Oc2cc3c(Nc4ccc(Cl)c(Cl)c4F)ncnc3cc2OC)CC1
GI50 (786-0 renal): 1.96 µM and 1.63 µM | TGI (786-0 renal): 17.7 µM and > 10 µM | GI50 (M14 melanoma): 4 µM and 3.1 µM | TGI (M14 melanoma): 20.2 µM and > 10 µM | GI50 (MALME-3M melanoma): 7.36 µM and > 5.35 µM | TGI (MALME-3M melanoma): 23.9 µM and > 10 µM | GI50 (NCI-H226 lung): 1.84 µM and 0.944 µM | TGI (NCI-H226 lung): 16.2 µM and > 10 µM | GI50 (OVCAR-8 ovarian): 4.52 µM and 1.91 µM | TGI (OVCAR-8 ovarian): 28.6 µM and > 10 µM | GI50 (RPMI-8226 leukemia): 6.49 µM and 3.93 µM | TGI (RPMI-8226 leukemia): 42.6 µM and > 10 µM | GI50 (SF-268 CNS): 0.743 µM and 0.466 µM | TGI (SF-268 CNS): 19.4 µM and > 7.14 µM | GI50 (SR leukemia): 2.27 µM and 2.8 µM | TGI (SR leukemia): 10.9 µM and > 10 µM | GI50 (SW-620 colon): 10.3 µM and 4.24 µM | TGI (SW-620 colon): 34.2 µM and > 10 µM | GI50 (UACC-257 melanoma): 11.5 µM and 6.67 µM | TGI (UACC-257 melanoma): 31.7 µM and > 10 µM

NC(CSC(c1ccccc1)(c1ccccc1)c1ccccc1)C(=O)NCC(=O)O (stereo not given)
GI50 (786-0 renal): 6.78 µM | TGI (786-0 renal): > 100 µM | GI50 (M14 melanoma): 3.73 µM | TGI (M14 melanoma): 23.2 µM | GI50 (MALME-3M melanoma): 5.3 µM | TGI (MALME-3M melanoma): > 100 µM | GI50 (NCI-H226 lung): 23.4 µM | TGI (NCI-H226 lung): > 100 µM | GI50 (OVCAR-8 ovarian): 5.35 µM | TGI (OVCAR-8 ovarian): > 100 µM | GI50 (RPMI-8226 leukemia): 3.42 µM | TGI (RPMI-8226 leukemia): 24.5 µM | GI50 (SF-268 CNS): 5.38 µM | TGI (SF-268 CNS): > 100 µM | GI50 (SR leukemia): 3.48 µM | TGI (SR leukemia): 38.2 µM | GI50 (SW-620 colon): 3.59 µM | TGI (SW-620 colon): > 100 µM | GI50 (UACC-257 melanoma): 5.19 µM | TGI (UACC-257 melanoma): > 100 µM

CN(C)CCC(=O)N1C/C(=C\c2ccc(Cl)c(Cl)c2)C(=O)/C(=C/c2ccc(Cl)c(Cl)c2)C1
TGI (786-0 renal): 0.323 µM | TGI (M14 melanoma): 0.979 µM | TGI (MALME-3M melanoma): 1.51 µM | TGI (NCI-H226 lung): 1.86 µM | TGI (OVCAR-8 ovarian): 0.752 µM | TGI (RPMI-8226 leukemia): 0.485 µM | TGI (SF-268 CNS): 0.653 µM | TGI (SR leukemia): 9.84 µM | TGI (SW-620 colon): 0.349 µM | TGI (UACC-257 melanoma): 2.53 µM

CN(c1ccc(NC(=O)Nc2c(Cl)cccc2Cl)cc1)c1ccnc(Nc2cccc(CS(C)(=O)=O)c2)n1
GI50 (786-0 renal): 3.63 µM | TGI (786-0 renal): 10.6 µM | GI50 (M14 melanoma): 2.64 µM | TGI (M14 melanoma): 11.6 µM | GI50 (MALME-3M melanoma): 1.53 µM | TGI (MALME-3M melanoma): > 14.4 µM | GI50 (NCI-H226 lung): 4.67 µM | TGI (NCI-H226 lung): > 20.2 µM | GI50 (OVCAR-8 ovarian): 2.31 µM | TGI (OVCAR-8 ovarian): 6.82 µM | GI50 (RPMI-8226 leukemia): 3.68 µM | TGI (RPMI-8226 leukemia): > 22.7 µM | GI50 (SF-268 CNS): 2.19 µM | TGI (SF-268 CNS): 10.7 µM | GI50 (SR leukemia): 0.303 µM | TGI (SR leukemia): > 25 µM | GI50 (SW-620 colon): 1.62 µM | TGI (SW-620 colon): > 16.8 µM | GI50 (UACC-257 melanoma): 1.94 µM | TGI (UACC-257 melanoma): 6.55 µM
